From US20050245399A1, “Pyrazole derivatives as herbicidal compositions containing them” (ISHIHARA SANGYO KAISHA, LTD., priority 2004, published 2005)

Key:
Format in all cases: in vivo
[1] = system: redroot pigweed (Amaranthus retroflexus L.): AMARE; experiment: Test Example 1 pre-emergence herbicidal activity, AMARE; conditions: Rate 63 g a.i./ha, visually observed 20th to 23rd day after application
Summary of the method: (§1)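 Scoring was visual growth control (0 = untreated, 100 = complete kill) on days 20–23 post-application. Treatment came as a pre-emergence spray one day after sowing in upland soil, using wettable powder or emulsifiable concentrate diluted in 500 L/ha water at predetermined active-ingredient amounts.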

[2] = system: velvetleaf (Abutilon theophrasti): ABUTH; experiment: Test Example 1 pre-emergence herbicidal activity, ABUTH; conditions: Rate 63 g a.i./ha, visually observed 20th to 23rd day after application
Summary of the method: as §1

[3] = system: common cocklebur (Xanthium strumarium L.): XANST; experiment: Test Example 1 pre-emergence herbicidal activity, XANST; conditions: Rate 63 g a.i./ha, visually observed 20th to 23rd day after application
Description: Upland field soil was put into a 1/170,000 ha pot, and seeds of various plants {1. barnyardgrass (Echinochloa crus-galli L.): ECHCG, 2. crabgrass (Digitaria sanguinalis L.): DIGSA, 3. green foxtail (Setaria viridis L.): SETVI, 4. redroot pigweed (Amaranthus retroflexus L.): AMARE, 5. prickly sida (Sida spinosa L.): SEDSP, 6. velvetleaf (Abutilon theophrasti): ABUTH, 7. common cocklebur (Xanthium strumarium L.): XANST, 8. rice (Oryza sativa L.): ORYSA, 9. wheat (Triticum aestivum L.): TRZAX, 10. corn (Zea mays L.): ZEAMX, 11. soybean (Glycine max Merr.): GLXMA} were sown. Then, one day after the sowing, a wettable powder or emulsifiable concentrate having the compound of the present invention formulated in accordance with a usual formulation method, was weighed so that the active ingredient would be a predetermined amount and diluted with water in an amount of 500 L/ha. The herbicide adjusted was applied by a small size sprayer for preemergence treatment. On the 20th to 23rd day after the application of the herbicide, the growth of the respective plants was visually observed, and the herbicidal effects were evaluated by growth controlling degrees (%) ranging from 0 (equivalent to the untreated control) to 100 (complete kill), whereby the results shown in Table 4, were obtained. Compound Nos. in Table 4 correspond to Compound Nos. in Table 1 and 2 given hereinbefore.

[4] = system: wheat (Triticum aestivum L.): TRZAX; experiment: Test Example 1 pre-emergence herbicidal activity, TRZAX; conditions: Rate 63 g a.i./ha, visually observed 20th to 23rd day after application
Summary of the method: as §1

[5] = system: corn (Zea mays L.): ZEAMX; experiment: Test Example 1 pre-emergence herbicidal activity, ZEAMX; conditions: Rate 63 g a.i./ha, visually observed 20th to 23rd day after application
Summary of the method: as §1

[6] = system: velvetleaf (Abutilon theophrasti), ABUTH; experiment: Test Example 2 post-emergence (foliage treatment) herbicidal activity, ABUTH
Summary of the method: (§2)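 A small sprayer delivered the diluted WP or EC formulation (500 L/ha water, 0.1% v/v spreader) over emerged seedlings in upland soil pots. Damage relative to untreated plants was graded visually from 0 to 100% three weeks or so later (days 20-23).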

[7] = system: rice (Oryza sativa L.), ORYSA; experiment: Test Example 2 post-emergence (foliage treatment) herbicidal activity, ORYSA
Summary of the method: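 Visual rating of growth control, from 0 (untreated-like) to 100 (complete kill), was done 20–23 days after post-emergence spraying. Wettable powder or emulsifiable concentrate was diluted to 500 L/ha with 0.1% (v/v) spreader. Leaf stages at application were 1.1-2.1 (ECHCG), 1.0-2.0 (DIGSA), 0.1-1.5 (AMARE) and 1.0-2 (ORYSA).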

[8] = system: soybean (Glycine max Merr.), GLXMA; experiment: Test Example 2 post-emergence (foliage treatment) herbicidal activity, GLXMA
Summary of the method: as §2

[9] = system: barnyardgrass (Echinochiloa oryzicola: ECHOR); experiment: Test Example 3 water application herbicidal activity (paddy), ECHOR; conditions: 63 g a.i./ha, water application under submerged condition at 0.5 leaf stage, visually observed 14th day after application; 0 = untreated control, 100 = complete kill
Summary of the method: (§3)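 Submerged application in flooded paddy soil (3–4 cm water); weeds treated at 0.5-leaf stage, transplanted rice 4 d after transplanting. Scored visually as % growth control: weeds at 14 d, rice at 21 d.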

[10] = system: japanese bulrush (Scirpus juncoides: SCPJO); experiment: Test Example 3 water application herbicidal activity (paddy), SCPJO; conditions: 63 g a.i./ha, water application under submerged condition at 0.5 leaf stage, visually observed 14th day after application; 0 = untreated control, 100 = complete kill
Summary of the method: as §3

[11] = system: rice (Oryza sativa L.: ORYSA); experiment: Test Example 3 water application herbicidal activity (paddy), transplanted rice ORYSA; conditions: 63 g a.i./ha, water application 4th day after transplantation of 2 leaf stage rice, visually observed 21st day after application; 0 = untreated control, 100 = complete kill
Summary of the method: as §3

SMILES: COc1c(Cl)cc(F)c(-c2nn(C)c(OC(F)F)c2Cl)c1N(C=O)C1CCCC1 [Compound 1-10]
- Pre-emergence Herbicidal Activity AMARE (growth controlling degree) [1]: 100%
- Pre-emergence Herbicidal Activity ABUTH (growth controlling degree) [2]: 100%
- Pre-emergence Herbicidal Activity XANST (growth controlling degree) [3]: 100%
- Pre-emergence Herbicidal Activity TRZAX (growth controlling degree) [4]: 40%
- Pre-emergence Herbicidal Activity ZEAMX (growth controlling degree) [5]: 40%
- growth controlling degree, ABUTH ([6]; 63 g a.i./ha): 100%
- growth controlling degree, ORYSA ([7]; 63 g a.i./ha): 70%
- growth controlling degree, GLXMA ([8]; 63 g a.i./ha): 50%
- growth controlling degrees (%) ECHOR [9]: 100%
- growth controlling degrees (%) SCPJO [10]: 40%
- growth controlling degrees (%) ORYSA [11]: 10%

SMILES: COc1c(Cl)cc(F)c(-c2nn(C)c(OC(F)F)c2Cl)c1NC(C)C [Compound 1-59]
- Pre-emergence Herbicidal Activity AMARE (growth controlling degree) [1]: 100%
- Pre-emergence Herbicidal Activity ABUTH (growth controlling degree) [2]: 95%
- Pre-emergence Herbicidal Activity TRZAX (growth controlling degree) [4]: 30%
- Pre-emergence Herbicidal Activity ZEAMX (growth controlling degree) [5]: 10%
- growth controlling degree, ABUTH ([6]; 63 g a.i./ha): 100%
- growth controlling degree, ORYSA ([7]; 63 g a.i./ha): 40%
- growth controlling degree, GLXMA ([8]; 63 g a.i./ha): 95%
- growth controlling degrees (%) ECHOR [9]: 100%
- growth controlling degrees (%) SCPJO [10]: 80%
- growth controlling degrees (%) ORYSA [11]: 40%

SMILES: CNc1c(OC)c(Cl)cc(F)c1-c1nn(C)c(OC(F)F)c1Cl [Compound 1-58]
- Pre-emergence Herbicidal Activity AMARE (growth controlling degree) [1]: 100%
- Pre-emergence Herbicidal Activity ABUTH (growth controlling degree) [2]: 95%
- Pre-emergence Herbicidal Activity TRZAX (growth controlling degree) [4]: 10%
- Pre-emergence Herbicidal Activity ZEAMX (growth controlling degree) [5]: 0%
- growth controlling degree, ABUTH ([6]; 63 g a.i./ha): 100%
- growth controlling degree, ORYSA ([7]; 63 g a.i./ha): 70%
- growth controlling degree, GLXMA ([8]; 63 g a.i./ha): 95%
- growth controlling degrees (%) ECHOR [9]: 100%
- growth controlling degrees (%) SCPJO [10]: 100%
- growth controlling degrees (%) ORYSA [11]: 70%

SMILES: COc1c(Cl)cc(F)c(-c2nn(C)c(OC(F)F)c2Cl)c1N(C=O)CC(C)=O [Compound 1-14]
- Pre-emergence Herbicidal Activity AMARE (growth controlling degree) [1]: 100%
- Pre-emergence Herbicidal Activity ABUTH (growth controlling degree) [2]: 100%
- Pre-emergence Herbicidal Activity XANST (growth controlling degree) [3]: 100%
- Pre-emergence Herbicidal Activity TRZAX (growth controlling degree) [4]: 40%
- Pre-emergence Herbicidal Activity ZEAMX (growth controlling degree) [5]: 40%
- growth controlling degree, ABUTH ([6]; 63 g a.i./ha): 100%
- growth controlling degree, ORYSA ([7]; 63 g a.i./ha): 40%
- growth controlling degree, GLXMA ([8]; 63 g a.i./ha): 60%
- growth controlling degrees (%) ECHOR [9]: 100%
- growth controlling degrees (%) SCPJO [10]: 90%
- growth controlling degrees (%) ORYSA [11]: 50%

SMILES: COc1c(Cl)cc(F)c(-c2nn(C)c(OC(F)F)c2Cl)c1N(C(=O)C=C(C)C)C(=O)C=C(C)C [Compound 1-11]
- Pre-emergence Herbicidal Activity AMARE (growth controlling degree) [1]: 100%
- Pre-emergence Herbicidal Activity ABUTH (growth controlling degree) [2]: 100%
- Pre-emergence Herbicidal Activity XANST (growth controlling degree) [3]: 30%
- Pre-emergence Herbicidal Activity TRZAX (growth controlling degree) [4]: 20%
- Pre-emergence Herbicidal Activity ZEAMX (growth controlling degree) [5]: 30%
- growth controlling degree, ABUTH ([6]; 63 g a.i./ha): 100%
- growth controlling degree, ORYSA ([7]; 63 g a.i./ha): 40%
- growth controlling degree, GLXMA ([8]; 63 g a.i./ha): 50%
- growth controlling degrees (%) ECHOR [9]: 100%
- growth controlling degrees (%) SCPJO [10]: 40%
- growth controlling degrees (%) ORYSA [11]: 35%

SMILES: Cn1nc(-c2c(F)cc(Cl)c(OC(F)F)c2N)c(Cl)c1OC(F)F [Compound 1-81, 3-chloro-6-[4-chloro-5-(difluoromethoxy)-1-methyl-1H-pyrazol-3-yl]-2-(difluoromethoxy)-5-fluorobenzenamine]
- Pre-emergence Herbicidal Activity AMARE (growth controlling degree) [1]: 100%
- Pre-emergence Herbicidal Activity ABUTH (growth controlling degree) [2]: 100%
- Pre-emergence Herbicidal Activity XANST (growth controlling degree) [3]: 60%
- Pre-emergence Herbicidal Activity TRZAX (growth controlling degree) [4]: 20%
- Pre-emergence Herbicidal Activity ZEAMX (growth controlling degree) [5]: 10%
- growth controlling degree, ABUTH ([6]; 125 g a.i./ha): 100%
- growth controlling degree, ORYSA ([7]; 125 g a.i./ha): 70%
- growth controlling degree, GLXMA ([8]; 125 g a.i./ha): 80%
- growth controlling degrees (%) ECHOR [9]: 100%
- growth controlling degrees (%) SCPJO [10]: 100%
- growth controlling degrees (%) ORYSA [11]: 35%

SMILES: COc1c(Cl)cc(F)c(-c2nn(C)c(OC(F)F)c2Cl)c1NC1CCCC1 [Compound 1-60]
- Pre-emergence Herbicidal Activity AMARE (growth controlling degree) [1]: 95%
- Pre-emergence Herbicidal Activity ABUTH (growth controlling degree) [2]: 30%
- Pre-emergence Herbicidal Activity TRZAX (growth controlling degree) [4]: 0%
- Pre-emergence Herbicidal Activity ZEAMX (growth controlling degree) [5]: 0%
- growth controlling degree, ABUTH ([6]; 63 g a.i./ha): 100%
- growth controlling degree, ORYSA ([7]; 63 g a.i./ha): 40%
- growth controlling degree, GLXMA ([8]; 63 g a.i./ha): 70%
- growth controlling degrees (%) ECHOR [9]: 100%
- growth controlling degrees (%) SCPJO [10]: 60%
- growth controlling degrees (%) ORYSA [11]: 30%

SMILES: COc1c(Cl)cc(F)c(-c2nn(C)c(OC(F)F)c2Cl)c1N(C)C=O [Compound 1-6]
- Pre-emergence Herbicidal Activity AMARE (growth controlling degree) [1]: 100%
- Pre-emergence Herbicidal Activity ABUTH (growth controlling degree) [2]: 50%
- Pre-emergence Herbicidal Activity TRZAX (growth controlling degree) [4]: 20%
- Pre-emergence Herbicidal Activity ZEAMX (growth controlling degree) [5]: 30%
- growth controlling degree, ABUTH ([6]; 63 g a.i./ha): 100%
- growth controlling degree, ORYSA ([7]; 63 g a.i./ha): 40%
- growth controlling degree, GLXMA ([8]; 63 g a.i./ha): 90%
- growth controlling degrees (%) ECHOR [9]: 90%
- growth controlling degrees (%) SCPJO [10]: 60%
- growth controlling degrees (%) ORYSA [11]: 50%

SMILES: COc1c(Cl)cc(F)c(-c2nn(C)c(OC(F)F)c2Cl)c1N(C=O)CC(=O)c1ccc(Cl)cc1 [Compound 1-13]
- Pre-emergence Herbicidal Activity AMARE (growth controlling degree) [1]: 100%
- Pre-emergence Herbicidal Activity ABUTH (growth controlling degree) [2]: 100%
- Pre-emergence Herbicidal Activity XANST (growth controlling degree) [3]: 50%
- Pre-emergence Herbicidal Activity TRZAX (growth controlling degree) [4]: 30%
- Pre-emergence Herbicidal Activity ZEAMX (growth controlling degree) [5]: 40%
- growth controlling degree, ABUTH ([6]; 63 g a.i./ha): 100%
- growth controlling degree, ORYSA ([7]; 63 g a.i./ha): 70%
- growth controlling degree, GLXMA ([8]; 63 g a.i./ha): 50%
- growth controlling degrees (%) ECHOR [9]: 95%
- growth controlling degrees (%) SCPJO [10]: 40%
- growth controlling degrees (%) ORYSA [11]: 10%

SMILES: COc1c(Cl)cc(F)c(-c2nn(C)c(OC(F)F)c2Cl)c1NC(=O)C=C(C)C [Compound 1-9]
- Pre-emergence Herbicidal Activity AMARE (growth controlling degree) [1]: 100%
- Pre-emergence Herbicidal Activity ABUTH (growth controlling degree) [2]: 100%
- Pre-emergence Herbicidal Activity XANST (growth controlling degree) [3]: 70%
- Pre-emergence Herbicidal Activity TRZAX (growth controlling degree) [4]: 40%
- Pre-emergence Herbicidal Activity ZEAMX (growth controlling degree) [5]: 70%
- growth controlling degree, ABUTH ([6]; 63 g a.i./ha): 100%
- growth controlling degree, ORYSA ([7]; 63 g a.i./ha): 80%
- growth controlling degree, GLXMA ([8]; 63 g a.i./ha): 90%
- growth controlling degrees (%) ECHOR [9]: 100%
- growth controlling degrees (%) SCPJO [10]: 100%
- growth controlling degrees (%) ORYSA [11]: 30%
